From BindingDB's records for patent US9187487 (Principia Biopharma, 2015)

Biological target: T1, Tyrosine-protein kinase JAK3 [781-1124] (Homo sapiens, UniProt P52333)
T1 construct: 781-1124
Assay: Phosphorylation Assay
Details: pH 7.5
Experimental: Phosphorylation of the appropriate peptide substrate (fluorescently labeled Srctide) by recombinant JAK3 (catalytic domain, aa 781-1124) was measured in the presence and absence of different concentrations of test compounds. Test compound, enzyme, fluorescently labeled substrate, and cofactors (ATP and Mg2+) were combined in a well of a microtiter plate and incubated for 2 hours at 25° C. The composition of the reaction buffer was 100 mM HEPES pH 7.5, 5 mM MgCl2, 0.01% Triton-X 100, 0.1% Bovine Serum Albumin, and 1% DMSO. Enzyme concentration in the final reaction mixture was 0.5 nM while peptide substrate was at 1 uM. ATP was used at 1xKm concentration corresponding to 2 uM. Serial dilutions (3-fold steps) of compounds were prepared in DMSO. At the end of the incubation, the reaction was stopped by the addition of 20 mM EDTA. Substrate and product (i.e. phosphorylated substrate) were separated electrophoretically and both were quantified by fluorescence intensity.

T1 sequence (P52333 781-1124): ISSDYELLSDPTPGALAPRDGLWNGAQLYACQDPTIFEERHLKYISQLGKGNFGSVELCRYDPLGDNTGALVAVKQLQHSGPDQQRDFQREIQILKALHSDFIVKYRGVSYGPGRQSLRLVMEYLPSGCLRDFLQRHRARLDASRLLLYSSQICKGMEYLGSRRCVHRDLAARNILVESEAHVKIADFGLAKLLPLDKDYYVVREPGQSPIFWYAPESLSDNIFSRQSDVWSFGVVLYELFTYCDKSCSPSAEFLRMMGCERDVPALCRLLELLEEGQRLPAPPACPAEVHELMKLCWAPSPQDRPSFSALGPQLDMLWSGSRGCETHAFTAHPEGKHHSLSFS

IC50	SMILES
190 nM	CC(C)C(=O)c1c[nH]c2ncc(-c3cccc(C=C(C#N)C(=O)N(C)C)c3)nc12 [US9187487, 37]
4 nM	CC(C)(C)C(=O)c1c[nH]c2ncc(Nc3ccc(C=C4SC(=O)NC4=O)cc3)nc12 [US9187487, 65]
